The record followed here is patent US4672057A, “Morpholino derivatives of daunorubicin and doxorubicin” (priority 1985, dated 1987).

≈ marks a conversion by molar mass, not a printed value. Like-named read-outs stand apart in the source and are kept apart here.

For one series, the system named is HeLa cells. Nature of the series: Colony inhibition test against HeLa cells in vitro. In kind it is cell-based. The settings on record: Homo sapiens. The text has this: The compounds have been tested in several experimental systems in order to ascertain their cytotoxicity and antitumor activity in experimental animals.
Colony inhibition test against HeLa cells
in vitro (treatment for 24 hrs)

The next series has as its system Gross leukemia. Description: Activity on Gross leukemia in C3H mice. In kind it is in vivo. The settings on record: for LTS (long term survivors, >60 days) / Toxic deaths / T/C %: iv on day 1; for Toxic deaths: autopsy findings; for T/C %: median survival time; for potency versus doxorubicin in Gross leukemia: iv on day 1 after tumor inoculation. As for the experimental part:
(§1) The primary screening in vivo was carried out in CDF-1 mice bearing P388 ascetic leukemia (10^6 cells/mouse). […] The doxorubicin analogs II, IV, VI have been tested in C3H mice bearing the Gross leukemia injected iv (2×10^6 cell/mouse). […] Compound II has been studied on P388 leukemia cells resistant to doxorubicin (P388/DX) in vitro and in vivo. Cytotoxicity tests were carried out exposing the cells to various drug concentrations for 48 hrs. At the end of exposure period cells were counted with a coulter cell counter, and the ID50 (dose which gives 50% reduction of the cell number in comparison with untreated controls) was calculated. […] Compound II has been tested also in vivo in BDF-1 mice bearing P388/DX leukemia.
Activity on Gross leukemia (IV-1)

Another series has as its system P388 leukemia. Nature of the series: Antitumor activity against P388 leukemia in CDF-1 mice. Type of series: in vivo. The settings on record: for LTS (long term survivors, >60 days) / Toxic deaths / T/C %: ip on day 1; for Toxic deaths: autopsy findings; for T/C %: median survival time. As for the experimental part: as §1
Antitumor activity against P388 leukemia
^a Median survival time; % over untreated controls
^b Long term survivors (>60 days)
^c Evaluated on the basis of autopsy findings on dead mice

The subject of another series is P388/DX leukemia cells. Description: Cytotoxicity test on doxorubicin-resistant P388 leukemia cells (P388/DX) in vitro. In kind it is cell-based. The settings on record: for activity on P388/DX leukemia cells: P388/DX cells in vitro, 48 hrs. As for the experimental part: as §1
(§2) Effect on sensitive and doxorubicin-resistant
(§3) ^a Dose giving 50% reduction of cell number in comparison with
^c P388 leukemia cells resistant to doxorubicin

A further series concerns P388 leukemia cells. Nature of the series: Cytotoxicity test on doxorubicin-sensitive P388 leukemia cells in vitro. Type of series: cell-based. The conditions noted are these: for IC50: Mus musculus. The protocol: as §1, §2, §3
^b P388 leukemia cells sensitive to doxorubicin

In another series the test system is P388/DX leukemia. Nature of the series: Effect on doxorubicin-resistant P388 leukemia (P388/DX) in vivo. The arrangement: species or system BDF-1 mice. The settings on record: for Toxic deaths: autopsy findings; for T/C: median survival time. The protocol:
as §1
Effect on doxorubicin-resistant P388 leukemia

Where [1] appears, read: compared with doxorubicin, P388 leukemia in mice.
[2] abbreviates: HeLa cells, colony inhibition, treatment for 24 hrs, read-out: ID50 (the source's name).

As to `COc1cccc2c1C(=O)c1c(O)c3c(c(O)c1C2=O)C[C@@](O)(C(C)=O)C[C@@H]3O[C@H]1C[C@H](N2CC(C)OC(OC)C2)[C@H](O)[C@H](C)O1` (stereo partly shown) [III, 3'-deamino-3'-(2"-methoxy-6"-methyl-4"-morpholinyl)daunorubicin], in the series on HeLa cells (HeLa, 24 h, read-out: ID50), the IC50 came to 1.8 ng/mL (≈ 2.81 nM).

`COc1cccc2c1C(=O)c1c(O)c3c(c(O)c1C2=O)C[C@@](O)(C(=O)CO)C[C@@H]3O[C@H]1C[C@H](N2CC(CO)OC(OC)C2)[C@H](O)[C@H](C)O1` (stereo partly shown) [VI, 3'-deamino-3'-(2"-methoxy-6"-hydroxymethyl-4"-morpholinyl)doxorubicin]: the “LTS (long term survivors, >60 days)” value with Gross leukemia (2 mg/Kg), in the series on P388 leukemia (1.33 mg/Kg) and in the series on P388 leukemia (2.0 mg/Kg) was 0/10 each time. Further, the Toxic deaths with Gross leukemia (2 mg/Kg), in the series with P388 leukemia (1.33 mg/Kg) and in the series on P388 leukemia (2.0 mg/Kg) was 0/10 in each case. Moreover, the T/C % is 150% in the series on Gross leukemia (2 mg/Kg), 164% in the series on P388 leukemia (1.33 mg/Kg) and 195% with P388 leukemia (2.0 mg/Kg). For the same compound, the “potency versus doxorubicin in Gross leukemia” value (shortened to “potency versus doxorubicin”) with Gross leukemia was “more potent than doxorubicin”. In addition, the IC50 in the series with HeLa cells (HeLa, 24 h, read-out: ID50) came to 9 ng/mL (≈ 13.4 nM). For the same compound, the “potency versus the parent drug” value in the series with P388 leukemia (setting [1]) is “more potent than the parent drug”.

The T/C is the ratio of treated to control. Consider `COc1cccc2c1C(=O)c1c(O)c3c(c(O)c1C2=O)C[C@@](O)(C(=O)CO)C[C@@H]3O[C@H]1C[C@H](N2CCOC(OC)C2)[C@H](O)[C@H](C)O1` (stereo partly shown) [Compound II, 3'-deamino-3'-(2"-methoxy-4"-morpholinyl)doxorubicin], for which the “activity on P388/DX leukemia cells” value in the series on P388/DX leukemia cells was “very active”. Moreover, the IC50 with P388/DX leukemia cells (P388/DX, 48 h, read-out: ID50) was 3 ng/mL (≈ 4.66 nM). In addition, in the series with Gross leukemia (0.16 mg/Kg), the “LTS (long term survivors, >60 days)” value is on record as 0/10; the Toxic deaths was 0/10; the T/C % is 150%. In addition, the “potency versus doxorubicin” value with Gross leukemia is on record as “more potent than doxorubicin”. The IC50 in the series on HeLa cells (HeLa, 24 h, read-out: ID50) is 0.96 ng/mL (≈ 1.49 nM). The IC50 in the series with P388 leukemia cells (P388, 48 h, read-out: ID50) worked out at 0.3 ng/mL (≈ 0.466 nM). In addition, the “times more cytotoxic than doxorubicin” value in the series with P388 leukemia cells (P388 leukemia cells) came out at 40 times. Further, in the series on P388 leukemia (0.15 mg/Kg), the “LTS (long term survivors, >60 days)” value is 2/10; the Toxic deaths is reported as 0/10; the T/C % stood at 295%. Further, in the series with P388 leukemia (setting [1]), the “efficacy versus the parent drug” value is “exhibits a major efficacy”, the “potency versus the parent drug” value is “more potent than the parent drug” and the “times more potent than the parent drug” value turned out to be 60 times. Moreover, in the series with P388/DX leukemia (0.075 mg/Kg), the “LTC (long term survivors, >60 days)” value is recorded as 0/10; the Toxic deaths is given as 0/10; the T/C stood at 100%. Further, in the series with P388/DX leukemia (0.15 mg/Kg), the “LTC (long term survivors, >60 days)” value is 0/10; the Toxic deaths is 1/10; the T/C is reported as 165%. The “activity in P388/DX leukemia in vivo” value with P388/DX leukemia (BDF-1 mice, 0.15 mg/Kg) is “very active”.

Regarding `COc1cccc2c1C(=O)c1c(O)c3c(c(O)c1C2=O)C[C@@](O)(C(=O)CO)C[C@@H]3O[C@H]1C[C@H](N)[C@H](O)[C@H](C)O1` [Doxorubicin, doxorubicin], the “activity on P388/DX leukemia cells” value with P388/DX leukemia cells is “inactive”. Further, the IC50 turned out to be 1500 ng/mL (≈ 2760 nM) with P388/DX leukemia cells (P388/DX resistant to doxorubicin, 48 hrs exposure, cell count, read-out: ID50 (the source's name)); 18 ng/mL (≈ 33.1 nM) in the series with HeLa cells (setting [2]); 12 ng/mL (≈ 22.1 nM) in the series with P388 leukemia cells (P388 sensitive to doxorubicin, 48 hrs exposure, cell count, read-out: ID50 (the source's name)). In addition, the “LTS (long term survivors, >60 days)” value with Gross leukemia (10 mg/Kg) is given as 0/10; in the series on Gross leukemia (13 mg/Kg) it was 0/10; in the series with P388 leukemia (6.6 mg/Kg) it was 0/10; in the series with P388 leukemia (10 mg/Kg), 1/10. Also, the Toxic deaths in the series on Gross leukemia (10 mg/Kg), in the series on Gross leukemia (13 mg/Kg), in the series on P388 leukemia (6.6 mg/Kg), in the series with P388 leukemia (10 mg/Kg), with P388/DX leukemia (4.4 mg/Kg) and in the series on P388/DX leukemia (6.6 mg/Kg) was 0/10 each time. For the same compound, the T/C % with Gross leukemia (10 mg/Kg) is 183%; in the series on Gross leukemia (13 mg/Kg), 200%; in the series with P388 leukemia (6.6 mg/Kg) it was 214%; in the series with P388 leukemia (10 mg/Kg), 214%. The “LTC (long term survivors, >60 days)” value with P388/DX leukemia (4.4 mg/Kg) and in the series on P388/DX leukemia (6.6 mg/Kg) was 0/10 in each case. Besides, the T/C was 110% in the series on P388/DX leukemia (4.4 mg/Kg) and 100% in the series with P388/DX leukemia (6.6 mg/Kg).

Regarding `COc1cccc2c1C(=O)c1c(O)c3c(c(O)c1C2=O)C[C@@](O)(C(C)=O)C[C@@H]3O[C@H]1C[C@H](N)[C@H](O)[C@H](C)O1` [Daunorubicin, daunorubicin], the IC50 in the series with HeLa cells (setting [2]) turned out to be 18.6 ng/mL (≈ 35.3 nM). In addition, in the series on P388 leukemia (2.9 mg/Kg), the “LTS (long term survivors, >60 days)” value was 0/10; the Toxic deaths is recorded as 0/10; the T/C % is reported as 145%. Besides, in the series on P388 leukemia (4.4 mg/Kg), the “LTS (long term survivors, >60 days)” value is given as 0/10; the Toxic deaths is recorded as 1/10; the T/C % was found to be 150%.

As to `COc1cccc2c1C(=O)c1c(O)c3c(c(O)c1C2=O)C[C@@](O)(C(C)=O)C[C@@H]3O[C@H]1C[C@H](N2CC(CO)OC(OC)C2)[C@H](O)[C@H](C)O1` (stereo partly shown) [V, 3'-deamino-3'-(2"-methoxy-6"-hydroxymethyl-4"-morpholinyl)daunorubicin], the IC50 with HeLa cells (HeLa, 24 h, read-out: ID50) amounted to 10.5 ng/mL (≈ 16 nM). In the series with P388 leukemia (2.0 mg/Kg), the “LTS (long term survivors, >60 days)” value is on record as 0/10; the Toxic deaths is 0/10; the T/C % is on record as 145%. For the same compound, in the series on P388 leukemia (3.0 mg/Kg), the “LTS (long term survivors, >60 days)” value is listed as 0/10; the Toxic deaths was 0/10; the T/C % was determined as 164%. In addition, in the series on P388 leukemia (same optimal dose, P388 leukemia in mice), the “activity versus daunorubicin (increase of mice life span)” value was “more active than daunorubicin”.

As for `COc1cccc2c1C(=O)c1c(O)c3c(c(O)c1C2=O)C[C@@](O)(C(C)=O)C[C@@H]3O[C@H]1C[C@H](N2CCOC(OC)C2)[C@H](O)[C@H](C)O1` (stereo partly shown) [Compound I, 3'-deamino-3'-(2"-methoxy-4"-morpholinyl)daunorubicin], the IC50 with HeLa cells (HeLa, 24 h, read-out: ID50) came out at 2 ng/mL (≈ 3.19 nM). In the series on P388 leukemia (0.13 mg/Kg), the “LTS (long term survivors, >60 days)” value is reported as 0/10; the Toxic deaths is recorded as 0/10; the T/C % worked out at 136%.

In the case of `COc1cccc2c1C(=O)c1c(O)c3c(c(O)c1C2=O)C[C@@](O)(C(=O)CO)C[C@@H]3O[C@H]1C[C@H](N2CC(C)OC(OC)C2)[C@H](O)[C@H](C)O1` (stereo partly shown) [IV, 3'-deamino-3'-(2"-methoxy-6"-methyl-4"-morpholinyl)doxorubicin], in the series on Gross leukemia (0.27 mg/Kg), the “LTS (long term survivors, >60 days)” value was 0/10; the Toxic deaths is 0/10; the T/C % is reported as 142%. The “potency versus doxorubicin” value in the series on Gross leukemia was “more potent than doxorubicin”. Besides, the IC50 with HeLa cells (HeLa, 24 h, read-out: ID50) was found to be 0.32 ng/mL (≈ 0.487 nM). Further, in the series with P388 leukemia (0.2 mg/Kg), the “LTS (long term survivors, >60 days)” value is 0/10; the Toxic deaths is reported as 0/10; the T/C % came to 173%. The “potency versus the parent drug” value in the series with P388 leukemia (setting [1]) is given as “more potent than the parent drug”.
